# Where two headings read alike, the source gives them in different places.
# Tests used:
# androgen receptor (hAR) [1] = molecular target: T1, androgen receptor (hAR) (Homo sapiens (Human), UniProt P10275); experiment: biochemical; type: binding
# Procedure: In order to examine binding ability of the agonists of the present invention to androgen receptors, the following in-vitro experiment was performed. African green monkey kidney fibroblast-like cell line, COS-7 (ATCC, #CRL-1651) was seeded in a 48-well plate at a density of 2.5×10^4 cells/well, and cultured for 24 hours. Then, a plasmid hAR-mixed medium was added thereto. […] Thereafter, the cells were lysed and the amount of [3H]MIB bound to the intracellular androgen receptors was measured using a radiation dosimeter.
# castrated male rats = experiment: Efficacy test in castrated male rat (Hershberger assay); type: in vivo, SD (Sprague-Dawley) rat; settings: castrated male SD rats, oral once a day for 14 days
# Procedure: SD (Sprague-Dawley) male rats (7-week-old) were castrated under ketamine/xylazine anesthesia, and 5 rats were randomly assigned to one group. From the next day, the agonists were dissolved in a vehicle solution and orally administered at a dose of 5 ml per kg once a day for 14 days. As the vehicle, DMSO, Co-solvent, and DW were prepared at a ratio of 4:80:16 (v/v/v), and Co-solvent was prepared by mixing PEG400, Ethanol, and Tween 80 at a ratio of 85:10:5 (v/v/v). 24 hours after last administration of the drug, their body weight was measured and killed. Thereafter, levator ani muscle, ventral prostate, and seminal vesicles were removed and weighed (Hershberger assay). The following Table 6 represents the result of the efficacy test in castrated male rats.
# androgen receptor (hAR) [2] = molecular target: T1, androgen receptor (hAR); experiment: Test of transcriptional activity (hAR / ARE-Luc dual-luciferase assay in CHO cells); type: cell-based; settings: CHO cells with hAR and ARE-Luc, 24 hours, 10 nM DHT = 100%
# Summary of the method: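 Compound at 0.1˜10,000 nM applied for 24 h to CHO cells carrying transfected human AR and an ARE-driven luciferase reporter. Cells were grown 24 h before transfection; readout was dual-luciferase luminescence.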
# [3] = 1 nM [3H]MIB, hAR-transfected COS-7 cells, 2 hours, read-out: IC50 [nM] (mean ± SE)
# T1 sequence (P10275 whole entry): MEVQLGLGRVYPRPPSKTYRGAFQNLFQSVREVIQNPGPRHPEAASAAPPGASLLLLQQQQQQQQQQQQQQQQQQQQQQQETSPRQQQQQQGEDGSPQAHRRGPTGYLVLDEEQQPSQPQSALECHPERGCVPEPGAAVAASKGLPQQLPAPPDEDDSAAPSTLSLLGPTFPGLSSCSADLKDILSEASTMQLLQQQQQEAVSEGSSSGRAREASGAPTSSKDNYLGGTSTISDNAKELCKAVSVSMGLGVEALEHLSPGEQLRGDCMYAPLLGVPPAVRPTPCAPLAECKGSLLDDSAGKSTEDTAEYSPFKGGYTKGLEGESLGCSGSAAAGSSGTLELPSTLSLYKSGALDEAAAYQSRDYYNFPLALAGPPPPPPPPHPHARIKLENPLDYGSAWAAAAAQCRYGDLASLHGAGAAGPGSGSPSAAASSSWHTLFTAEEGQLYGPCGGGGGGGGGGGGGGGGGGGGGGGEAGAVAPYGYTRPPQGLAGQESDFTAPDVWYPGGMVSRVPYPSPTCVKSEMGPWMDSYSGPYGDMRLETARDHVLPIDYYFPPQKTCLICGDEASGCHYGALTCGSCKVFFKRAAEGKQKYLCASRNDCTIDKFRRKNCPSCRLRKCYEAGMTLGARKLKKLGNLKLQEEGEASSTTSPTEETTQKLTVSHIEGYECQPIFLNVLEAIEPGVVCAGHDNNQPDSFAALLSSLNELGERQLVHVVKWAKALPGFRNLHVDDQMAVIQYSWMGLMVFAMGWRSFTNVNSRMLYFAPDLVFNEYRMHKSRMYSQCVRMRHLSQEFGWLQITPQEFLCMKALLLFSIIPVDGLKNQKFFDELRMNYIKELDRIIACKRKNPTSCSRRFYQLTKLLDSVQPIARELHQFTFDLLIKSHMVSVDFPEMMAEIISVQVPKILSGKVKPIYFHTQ
compound,measurement,setting,value
"N#Cc1ccc(COC[C@H]2CN(c3ccc(C#N)c(C(F)(F)F)c3)[C@H](C(F)(F)F)O2)cc1 [Example 4, 4-((2S,5R)-5-(((4-cyanobenzyl)oxy)methyl)-2-(trifluoromethyl)oxazolidin-3-yl)-2-(trifluoromethyl)benzonitrile]",IC50,androgen receptor (hAR) [1]; [3],657 nM
"N#Cc1ccc(N2C[C@H]([C@H](O)C(F)(F)F)O[C@H]2C(F)(F)F)cc1C(F)(F)F [Example 22, 4-((2S,5R)-5-((S)-2,2,2-trifluoro-1-hydroxyethyl)-2-(trifluoromethyl)oxazolidin-3-yl)-2-(trifluoromethyl)benzonitrile]",IC50,androgen receptor (hAR) [1]; [3],1870 nM
"N#Cc1ccc(N2C[C@H]([C@@H](O)C(F)(F)F)O[C@H]2C(F)(F)F)cc1C(F)(F)F [Example 21, 4-((2S,5R)-5-((R)-2,2,2-trifluoro-1-hydroxyethyl)-2-(trifluoromethyl)oxazolidin-3-yl)-2-(trifluoromethyl)benzonitrile]",IC50,androgen receptor (hAR) [1]; [3],1060 nM
"COc1ccc(OC[C@@H]2CN(c3ccc(C#N)c(C(F)(F)F)c3)[C@@H](C(F)(F)F)O2)cc1 [Example 27, 4-((2R,5S)-5-((4-methoxyphenoxy)methyl)-2-(trifluoromethyl)oxazolidin-3-yl)-2-(trifluoromethyl)benzonitrile]",IC50,androgen receptor (hAR) [1]; [3],22.4 nM
"N#Cc1ccc(OC[C@H]2CN(c3ccc(C#N)c(C(F)(F)F)c3)[C@@H](C(F)(F)F)O2)cc1 [Example 5, 4-((2R,5R)-5-((4-cyanophenoxy)methyl)-2-(trifluoromethyl)oxazolidin-3-yl)-2-(trifluoromethyl)benzonitrile]",IC50,androgen receptor (hAR) [1],91.6 nM
"N#Cc1ccc(N2C[C@@H]([C@@H](O)C(F)(F)F)O[C@@H]2C(F)(F)F)cc1C(F)(F)F [Example 23, 4-((2R,5S)-5-((R)-2,2,2-trifluoro-1-hydroxyethyl)-2-(trifluoromethyl)oxazolidin-3-yl)-2-(trifluoromethyl)benzonitrile]",IC50,androgen receptor (hAR) [1]; [3],44.3 nM
"N#Cc1ccc(OC[C@H]2CN(c3ccc(C#N)c(C(F)(F)F)c3)[C@H](C(F)(F)F)O2)cc1 [Example 20, 4-((2S,5R)-5-((4-cyanophenoxy)methyl)-2-(trifluoromethyl)oxazolidin-3-yl)-2-(trifluoromethyl)benzonitrile]",IC50,androgen receptor (hAR) [1]; [3],1080 nM
"N#Cc1ccc(N2C[C@@H](COc3ccc([N+](=O)[O-])cc3Cl)O[C@@H]2C(F)(F)F)cc1C(F)(F)F [Example 12, 4-((2R,5S)-5-((2-chloro-4-nitrophenoxy)methyl)-2-(trifluoromethyl)oxazolidin-3-yl)-2-(trifluoromethyl)benzonitrile]",IC50,androgen receptor (hAR) [1]; [3],145 nM
"CNC(=O)c1ccc(OC[C@@H]2CN(c3ccc(C#N)c(C(F)(F)F)c3)[C@@H](C(F)(F)F)O2)cc1 [Example 32, 4-(((2R,5S)-3-(4-cyano-3-(trifluoromethyl)phenyl)-2-(trifluoromethyl)oxazolidin-5-yl)methoxy)-N-methylbenzamide]",IC50,androgen receptor (hAR) [1]; [3],32.7 nM
"COC(=O)Nc1ccc(OC[C@@H]2CN(c3ccc(C#N)c(C(F)(F)F)c3)[C@@H](C(F)(F)F)O2)cc1 [Example 36, methyl(4-(((2R,5S)-3-(4-cyano-3-(trifluoromethyl)phenyl)-2-(trifluoromethyl)oxazolidin-5-yl)methoxy)phenyl)carbamate]",levator ani muscle weight % relative to intact control group,castrated male rats; 0.1 mg/kg,18.6 ± 2.2%
same,seminal vesicles weight % relative to intact control group,castrated male rats; 0.1 mg/kg,2.4 ± 0.6%
same,ventral prostate weight % relative to intact control group,castrated male rats; 0.1 mg/kg,1.0 ± 0.1%
same,levator ani muscle weight % relative to intact control group,castrated male rats; 0.3 mg/kg,18.8 ± 2.7%
same,seminal vesicles weight % relative to intact control group,castrated male rats; 0.3 mg/kg,−0.2 ± 0.0%
same,ventral prostate weight % relative to intact control group,castrated male rats; 0.3 mg/kg,0.6 ± 0.1%
same,levator ani muscle weight % relative to intact control group,castrated male rats; 1 mg/kg,53.9 ± 6.5%
same,seminal vesicles weight % relative to intact control group,castrated male rats; 1 mg/kg,4.7 ± 1.0%
same,ventral prostate weight % relative to intact control group,castrated male rats; 1 mg/kg,8.0 ± 1.6%
same,levator ani muscle weight % relative to intact control group,castrated male rats; 3 mg/kg,47.0 ± 2.6%
same,seminal vesicles weight % relative to intact control group,castrated male rats; 3 mg/kg,3.0 ± 0.7%
same,ventral prostate weight % relative to intact control group,castrated male rats; 3 mg/kg,4.7 ± 1.9%
same,levator ani muscle weight % relative to intact control group,castrated male rats; 10 mg/kg,55.2 ± 10.3%
same,seminal vesicles weight % relative to intact control group,castrated male rats; 10 mg/kg,4.7 ± 0.7%
same,ventral prostate weight % relative to intact control group,castrated male rats; 10 mg/kg,5.8 ± 0.8%
same,levator ani muscle weight % relative to intact control group,castrated male rats; 30 mg/kg,58.2 ± 5.8%
same,seminal vesicles weight % relative to intact control group,castrated male rats; 30 mg/kg,10.4 ± 3.1%
same,ventral prostate weight % relative to intact control group,castrated male rats; 30 mg/kg,10.8 ± 3.1%
same,levator ani muscle weight % relative to intact control group,castrated male rats; 100 mg/kg,65.3 ± 7.9%
same,seminal vesicles weight % relative to intact control group,castrated male rats; 100 mg/kg,16.1 ± 4.0%
same,ventral prostate weight % relative to intact control group,castrated male rats; 100 mg/kg,12.6 ± 3.1%
same,EC50,androgen receptor (hAR) [2]; EC50 [nM] (mean ± SE),8.1 ± 1.9 nM
"N#Cc1ccc(N2C[C@@H](COc3ccc([N+](=O)[O-])cc3)O[C@H]2C(F)(F)F)cc1C(F)(F)F [Example 35, 4-((2S,5S)-5-((4-nitrophenoxy)methyl)-2-(trifluoromethyl)oxazolidin-3-yl)-2-(trifluoromethyl)benzonitrile]",IC50,androgen receptor (hAR) [1]; [3],185 nM
"COc1cccc(OC[C@@H]2CN(c3ccc(C#N)c(C(F)(F)F)c3)[C@@H](C(F)(F)F)O2)c1 [Example 28, 4-((2R,5S)-5-((3-methoxyphenoxy)methyl)-2-(trifluoromethyl)oxazolidin-3-yl)-2-(trifluoromethyl)benzonitrile]",IC50,androgen receptor (hAR) [1]; [3],77.2 nM
"N#Cc1ccc(N2C[C@@H](COc3ccc(C(=O)O)cc3)O[C@@H]2C(F)(F)F)cc1C(F)(F)F [Example 9, 4-(((2R,5S)-3-(4-cyano-3-(trifluoromethyl)phenyl)-2-(trifluoromethyl)oxazolidin-5-yl)methoxy)benzoic acid]",IC50,androgen receptor (hAR) [1],367 nM
"(2R,5S)-N-(4-acetamidophenyl)-3-(3-chloro-4-nitrophenyl)-2-(trifluoromethyl)oxazolidine-5-carboxamide [Example 123]",levator ani muscle weight % relative to intact control group,castrated male rats; 0.03 mg/kg,3.5 ± 0.5%
same,seminal vesicles weight % relative to intact control group,castrated male rats; 0.03 mg/kg,0.3 ± 0.0%
same,ventral prostate weight % relative to intact control group,castrated male rats; 0.03 mg/kg,0.5 ± 0.1%
same,levator ani muscle weight % relative to intact control group,castrated male rats; 0.1 mg/kg,7.00 ± 0.7%
same,seminal vesicles weight % relative to intact control group,castrated male rats; 0.1 mg/kg,0.2 ± 0.0%
same,levator ani muscle weight % relative to intact control group,castrated male rats; 0.3 mg/kg,14.7 ± 1.5%
same,seminal vesicles weight % relative to intact control group,castrated male rats; 0.3 mg/kg,0.1 ± 0.0%
same,ventral prostate weight % relative to intact control group,castrated male rats; 0.3 mg/kg,1.6 ± 0.2%
same,levator ani muscle weight % relative to intact control group,castrated male rats; 1 mg/kg,23.0 ± 1.1%
same,seminal vesicles weight % relative to intact control group,castrated male rats; 1 mg/kg,0.5 ± 0.1%
same,ventral prostate weight % relative to intact control group,castrated male rats; 1 mg/kg,0.7 ± 0.2%
same,levator ani muscle weight % relative to intact control group,castrated male rats; 3 mg/kg,40.2 ± 4.2%
same,seminal vesicles weight % relative to intact control group,castrated male rats; 3 mg/kg,2.8 ± 1.2%
same,ventral prostate weight % relative to intact control group,castrated male rats; 3 mg/kg,5.6 ± 1.9%
same,levator ani muscle weight % relative to intact control group,castrated male rats; 10 mg/kg,58.7 ± 4.1%
same,seminal vesicles weight % relative to intact control group,castrated male rats; 10 mg/kg,11.0 ± 2.3%
same,ventral prostate weight % relative to intact control group,castrated male rats; 10 mg/kg,7.9 ± 2.2%
same,levator ani muscle weight % relative to intact control group,castrated male rats; 30 mg/kg,78.9 ± 4.0%
same,seminal vesicles weight % relative to intact control group,castrated male rats; 30 mg/kg,30.5 ± 5.7%
same,ventral prostate weight % relative to intact control group,castrated male rats; 30 mg/kg,23.0 ± 2.9%
same,levator ani muscle weight % relative to intact control group,castrated male rats; 100 mg/kg,88.5 ± 4.7%
same,seminal vesicles weight % relative to intact control group,castrated male rats; 100 mg/kg,58.7 ± 10.8%
same,ventral prostate weight % relative to intact control group,castrated male rats; 100 mg/kg,39.0 ± 9.8%
same,EC50,androgen receptor (hAR) [2]; read-out: EC50 [nM] (mean ± SE),7.34 nM
"CC(=O)Nc1ccc(OC[C@@H]2CN(c3ccc(C#N)c(C(F)(F)F)c3)[C@H](C(F)(F)F)O2)cc1 [Example 30, N-(4-(((2S,5S)-3-(4-cyano-3-(trifluoromethyl)phenyl)-2-(trifluoromethyl)oxazolidin-5-yl)methoxy)phenyl)acetamide]",IC50,androgen receptor (hAR) [1]; [3],142 nM
"N#Cc1ccc(N2C[C@@H]([C@H](O)C(F)(F)F)O[C@@H]2C(F)(F)F)cc1C(F)(F)F [Example 24, 4-((2R,5S)-5-((S)-2,2,2-trifluoro-1-hydroxyethyl)-2-(trifluoromethyl)oxazolidin-3-yl)-2-(trifluoromethyl)benzonitrile]",IC50,androgen receptor (hAR) [1]; [3],141 nM

# Reference: patent US9809583B2 (priority 2014, dated 2017)
